Measurements from patent publication US12110286B2, “Benzimidazolone derived inhibitors of BCL6” (Cancer Research Technology Limited, priority 2017, dated 2024).

Target: Trx-6×His-BCL6 (human BCL6 BTB domain covering amino-acid sequence 5-129) (Homo sapiens (Human), UniProt P41182)
Assay: HTRF in vitro assay (BCL6 / BCOR-AF633 peptide)
Type: binding
Settings: further generated data; 1 nM Trx-6×His-BCL6, 300 nM BCOR-AF633 peptide, 0.5 nM anti-6×His-Terbium cryptate
Description: The % inhibition at each concentration was calculated by normalising FRET ratio to the appropriate high (DMSO with all reagents) and low (DMSO without BCL6) controls.

| Compound | HTRF pIC50 |
| --- | --- |
| CC1OC(=O)NC1Cn1c(=O)n(C)c2ccc(Nc3ccnc(Cl)c3C#N)cc21 (stereo not shown) [Example 34, 2-chloro-4-((1-methyl-3-((5-methyl-2-oxooxazolidin-4-yl)methyl)-2-oxo-2,3-dihydro-1H-benzo[d]imidazol-5-yl)amino)nicotinonitrile] | 5.31 |
| Cn1c(=O)n(CCC(C)(C)O)c2cc(Nc3nc(N4CCC5(CC4)CC(F)(F)C5)ncc3Cl)ccc21 [Example 35f, 5-((5-chloro-2-(2,2-difluoro-7-azaspiro[3.5]nonan-7-yl)pyrimidin-4-yl)amino)-3-(3-hydroxy-3-methylbutyl)-1-methyl-1,3-dihydro-2H-benzo[d]imidazol-2-one] | 6.05 |
| Cn1c(=O)n(CCC(C)(C)O)c2cc(Nc3nc(N4C[C@@H](F)[C@@H](F)C4)ncc3Cl)ccc21 [Example 35h, 5-((5-chloro-2-((3R,4S)-3,4-difluoropyrrolidin-1-yl)pyrimidin-4-yl)amino)-3-(3-hydroxy-3-methylbutyl)-1-methyl-1,3-dihydro-2H-benzo[d]imidazol-2-one] | 6.36 |
| Cn1c(=O)n(C[C@@H]2CCCN2CC(F)(F)F)c2cc(Nc3nc(N4CC(C)(C)OC(C)(C)C4)ncc3Cl)ccc21 [Example 35i, (S)-5-((5-chloro-2-(2,2,6,6-tetramethylmorpholino)pyrimidin-4-yl)amino)-1-methyl-3-((1-(2,2,2-trifluoroethyl)pyrrolidin-2-yl)methyl)-1,3-dihydro-2H-benzo[d]imidazol-2-one] | 6.01 |
| Cn1c(=O)n(CCC(C)(C)O)c2cc(Nc3nc(N4C[C@@H]5CC[C@@H](C5)C4)ncc3Cl)ccc21 [Example 35n, 5-((2-((1R,5S)-3-azabicyclo[3.2.1]octan-3-yl)-5-chloropyrimidin-4-yl)amino)-3-(3-hydroxy-3-methylbutyl)-1-methyl-1,3-dihydro-2H-benzo[d]imidazol-2-one] | 6.05 |
| Cn1c(=O)n(CCC(C)(C)O)c2cc(Nc3nc(N4C[C@H]5CCCC[C@H]5C4)ncc3Cl)ccc21 [Example 35o, 5-((5-chloro-2-((3aR,7aS)-octahydro-2H-isoindo1-2-yl)pyrimidin-4-yl)amino)-3-(3-hydroxy-3-methylbutyl)-1-methyl-1,3-dihydro-2H-benzo[d]imidazol-2-one] | 6.04 |
| C[C@@H]1CN(c2ncc(Cl)c(Nc3ccc4c(c3)n(CCC(C)(C)O)c(=O)n4C)n2)C[C@@H]1C [Example 35p, 5-((5-chloro-2-((3R,4S)-3,4-dimethylpyrrolidin-1-yl)pyrimidin-4-yl)amino)-3-(3-hydroxy-3-methylbutyl)-1-methyl-1,3-dihydro-2H-benzo[d]imidazol-2-one] | 6.15 |
| C[C@@H]1CN(c2ncc(Cl)c(Nc3cnc4c(c3)n(CCC(C)(C)O)c(=O)n4CCC(C)(C)O)n2)C[C@H](C)C1(F)F [Example 35r, 6-((5-chloro-2-((3R,5S)-4,4-difluoro-3,5-dimethylpiperidin-1-yl)pyrimidin-4-yl)amino)-1,3-bis(3-hydroxy-3-methylbutyl)-1,3-dihydro-2H-imidazo[4,5-b]pyridin-2-one] | 5.98 |
| Cn1c(=O)n(CCC(C)(C)O)c2cc(Nc3nc(N4CC5CCC(C4)C5(F)F)ncc3Cl)ccc21 [Example 35s, 5-((5-chloro-2-(8,8-difluoro-3-azabicyclo[3.2.1]octan-3-yl)pyrimidin-4-yl)amino)-3-(3-hydroxy-3-methylbutyl)-1-methyl-1,3-dihydro-2H-benzo[d]imidazol-2-one] | 6.16 |
| CC(C)(O)CCn1c(=O)n(CCC(C)(C)O)c2c(Cl)cc(Nc3nc(N4CC(C)(C)OC(C)(C)C4)ncc3Cl)cc21 [Example 35u, 4-chloro-6-((5-chloro-2-(2,2,6,6-tetramethylmorpholino)pyrimidin-4-yl)amino)-1,3-bis(3-hydroxy-3-methylbutyl)-1,3-dihydro-2H-benzo[d]imidazol-2-one] | 5.74 |
| Cn1c(=O)n(CCC(C)(C)O)c2cc(Nc3nc(N4CC5CC(C4)C5(F)F)ncc3Cl)ccc21 [Example 35w, 5-((5-chloro-2-(6,6-difluoro-3-azabicyclo[3.1.1]heptan-3-yl)pyrimidin-4-yl)amino)-3-(3-hydroxy-3-methylbutyl)-1-methyl-1,3-dihydro-2H-benzo[d]imidazol-2-one] | 5.74 |
| C[C@@H]1CCN(c2ncc(Cl)c(Nc3ccc4c(c3)n(CCC(C)(C)O)c(=O)n4C)n2)C[C@H](C)C1 [Example 35y, 5-((5-chloro-2-((3R,5S)-3,5-dimethylazepan-1-yl)pyrimidin-4-yl)amino)-3-(3-hydroxy-3-methylbutyl)-1-methyl-1,3-dihydro-2H-benzo[d]imidazol-2-one] | 5.70 |
| Cn1c(=O)n(CCC(C)(C)O)c2cc(Nc3nc(N4CCCC(c5ccccc5)C4)ncc3Cl)ccc21 (stereo not shown) [Example 35za, 5-((5-chloro-2-(3-phenylpiperidin-1-yl)pyrimidin-4-yl)amino)-3-(3-hydroxy-3-methylbutyl)-1-methyl-1,3-dihydro-2H-benzo[d]imidazol-2-one] | 6.00 |
| C[C@@H]1CN(c2cc(Nc3ccc4c(c3)n(CCC(C)(C)O)c(=O)n4C)c(Cl)cn2)C[C@H](C)O1 [Example 36b, 5-((5-chloro-2-((2R,6S)-2,6-dimethylmorpholino)pyridin-4-yl)amino)-3-(3-hydroxy-3-methylbutyl)-1-methyl-1,3-dihydro-2H-benzo[d]imidazol-2-one] | 5.99 |
| CN(C)C(=O)C1CCN(c2cc(Nc3ccc4c(c3)n(CCC(C)(C)O)c(=O)n4C)c(Cl)cn2)CC1 [Example 36c, 1-(5-chloro-4-((3-(3-hydroxy-3-methylbutyl)-1-methyl-2-oxo-2,3-dihydro-1H-benzo[d]imidazol-5-yl)amino)pyridin-2-yl)-N,N-dimethylpiperidine-4-carboxamide] | 5.88 |
| C[C@@H]1C[C@H](C)CN(c2cc(Nc3ccc4c(c3)n(CCC(C)(C)O)c(=O)n4C)c(Cl)cn2)C1 [Example 36d, 5-((5-chloro-2-((3S,5R)-3,5-dimethylpiperidin-1-yl)pyridin-4-yl)amino)-3-(3-hydroxy-3-methylbutyl)-1-methyl-1,3-dihydro-2H-benzo[d]imidazol-2-one] | 5.48 |
| C[C@@H]1C[C@H](C)CN(C(=O)c2cc(Nc3ccc4c(c3)n(CCC(C)(C)O)c(=O)n4C)c(Cl)cn2)C1 [Example 36e, 5-((5-chloro-2-((3R,5S)-3,5-dimethylpiperidine-1-carbonyl)pyridin-4-yl)amino)-3-(3-hydroxy-3-methylbutyl)-1-methyl-1,3-dihydro-2H-benzo[d]imidazol-2-one] | 6.22 |
| C[C@@H]1CN(C(=O)c2cc(Nc3ccc4c(c3)n(CCC(C)(C)O)c(=O)n4C)c(Cl)cn2)C[C@H](C)C1(F)F [Example 36f, 5-((5-chloro-2-((3S,5R)-4,4-difluoro-3,5-dimethylpiperidine-1-carbonyl)pyridin-4-yl)amino)-3-(3-hydroxy-3-methylbutyl)-1-methyl-1,3-dihydro-2H-benzo[d]imidazol-2-one] | 6.07 |

Now from value to compound:

| HTRF pIC50 | Compound |
| --- | --- |
| 6.53 | C[C@@H]1CN(c2ncc(Cl)c(Nc3ccc4c(c3)n(CCC(C)(C)O)c(=O)n4CCN(C)C)n2)C[C@H](C)C1(F)F [Example 37a, 5-((5-chloro-2-((3S,5R)-4,4-difluoro-3,5-dimethylpiperidin-1-yl)pyrimidin-4-yl)amino)-1-(2-(dimethylamino)ethyl)-3-(3-hydroxy-3-methylbutyl)-1,3-dihydro-2H-benzo[d]imidazol-2-one] |
| 6.47 | C[C@@H]1CN(c2ncc(Cl)c(Nc3ccc4c(c3)n(CCC(C)(C)O)c(=O)n4CCN3CCOCC3)n2)C[C@H](C)C1(F)F [Example 37b, 5-((5-chloro-2-((3S,5R)-4,4-difluoro-3,5-dimethylpiperidin-1-yl)pyrimidin-4-yl)amino)-3-(3-hydroxy-3-methylbutyl)-1-(2-morpholinoethyl)-1,3-dihydro-2H-benzo[d]imidazol-2-one] |
| 5.53 | CCOC(=O)/C=C/Cn1c(=O)n(CCC(C)(C)O)c2cc(Nc3nc(N4C[C@@H](C)C(F)(F)[C@@H](C)C4)ncc3Cl)ccc21 [Example 38a, ethyl(E)-4-(5-((5-chloro-2-((3S,5R)-4,4-difluoro-3,5-dimethylpiperidin-1-yl)pyrimidin-4-yl)amino)-3-(3-hydroxy-3-methylbutyl)-2-oxo-2,3-dihydro-1H-benzo[d]imidazol-1-yl)but-2-enoate] |
| 6.09 | Cn1c(=O)n(CCC(C)(C)O)c2cc(Nc3nc(OCC(F)(F)F)ncc3Cl)ccc21 [Example 39a, 5-((5-Chloro-2-(2,2,2-trifluoroethoxy)pyrimidin-4-yl)amino)-3-(3-hydroxy-3-methylbutyl)-1-methyl-1,3-dihydro-2H-benzo[d]imidazol-2-one] |
| 6.49 | C[C@@H]1CN(c2ncc(Cl)c(Nc3ccc4c(c3)n(CCC(C)(C)O)c(=O)n4CCO)n2)C[C@H](C)C1(F)F [Example 40a, 5-[[5-chloro-2-[(3S,5R)-4,4-difluoro-3,5-dimethyl-1-piperidyl]pyrimidin-4-yl]amino]-1-(2-hydroxyethyl)-3-(3-hydroxy-3-methyl-butyl)benzimidazol-2-one] |
| 6.06 | COC(Cn1c(=O)n(CCC(C)(C)O)c2cc(Nc3nc(N4C[C@@H](C)C(F)(F)[C@@H](C)C4)ncc3Cl)ccc21)OC [Example 41a, 5-((5-chloro-2-((3S,5R)-4,4-difluoro-3,5-dimethylpiperidin-1-yl)pyrimidin-4-yl)amino)-1-(2,2-dimethoxyethyl)-3-(3-hydroxy-3-methylbutyl)-1,3-dihydro-2H-benzo[d]imidazol-2-one] |
| 6.60 | Cn1c(=O)n(CCC(C)(C)O)c2cc(Nc3nc(N4CCC(C#N)CC4)ncc3Cl)ccc21 [Example 42a, 1-(5-chloro-4-((3-(3-hydroxy-3-methylbutyl)-1-methyl-2-oxo-2,3-dihydro-1H-benzo[d]imidazol-5-yl)amino)pyrimidin-2-yl)piperidine-4-carbonitrile] |
